Measurements as given in ChEMBL document CHEMBL5226354, “The Medicinal Chemistry and Therapeutic Potential of LRH-1 Modulators” (J Med Chem, 2021).

Assays:
[1] = biological target: T1, Nuclear receptor subfamily 5 group A member 2 (Homo sapiens, UniProt O00482); test: Inhibition of full length LRH1 transfected in HEK293T cells incubated for 20 hrs by luciferase reporter assay; type: cell-based
[2] = biological target: T1, Nuclear receptor subfamily 5 group A member 2; test: Inhibition of full length LRH1 in HEK293T cells at 550 nM incubated for 20 hrs by luciferase reporter assay relative to control; type: cell-based
[3] = biological target: T1, Nuclear receptor subfamily 5 group A member 2; test: Antagonist activity at human LRH-1
[4] = biological target: T1, Nuclear receptor subfamily 5 group A member 2; test: Inhibition of full length LRH1 in HEK293T cells at 10 uM incubated for 20 hrs by luciferase reporter assay relative to control; type: cell-based
[5] = biological target: T1, Nuclear receptor subfamily 5 group A member 2; test: Antagonist activity at human recombinant LRH-1 LBD ([…] to 541 residues)

T1 sequence (O00482 whole entry): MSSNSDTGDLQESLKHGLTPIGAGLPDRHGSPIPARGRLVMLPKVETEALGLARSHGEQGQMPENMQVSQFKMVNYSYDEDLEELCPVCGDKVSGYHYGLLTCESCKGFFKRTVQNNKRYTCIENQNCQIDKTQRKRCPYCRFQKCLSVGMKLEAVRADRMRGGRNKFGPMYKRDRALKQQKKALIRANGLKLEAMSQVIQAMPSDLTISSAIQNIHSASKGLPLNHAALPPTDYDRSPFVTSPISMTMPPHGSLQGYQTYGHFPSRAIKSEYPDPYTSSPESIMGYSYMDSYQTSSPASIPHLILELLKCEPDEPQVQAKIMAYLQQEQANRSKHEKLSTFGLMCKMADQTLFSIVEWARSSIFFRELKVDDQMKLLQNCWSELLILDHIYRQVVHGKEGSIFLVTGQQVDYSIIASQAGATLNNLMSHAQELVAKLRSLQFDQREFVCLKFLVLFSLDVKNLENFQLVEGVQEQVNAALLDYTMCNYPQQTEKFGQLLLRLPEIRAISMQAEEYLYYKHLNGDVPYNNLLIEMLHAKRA

IC50 [1] [µM] | IC50 [3] [µM] | SMILES | also measured
0.32 | – | O=c1cc(N2CCN(c3cccc(C(F)(F)F)c3)CC2)[nH]c(=O)n1C1CCCCC1 | inhibition [2]: 40%
– | 5 | CC(=O)c1cccc(-c2cccc(-c3ccn(CCN4CCOCC4)n3)c2)c1 | –
3.7 | – | O=c1cc(N2CCN(c3cccc(Cl)c3)CC2)[nH]c(=O)n1C1CCCCC1 | inhibition [4]: 64%
– | 6 | Cc1nc(N(C)C)nc(-c2cccc(-c3ccn(CCN(C)C)n3)c2)c1C | –
– | – | O=C(c1ccc(OCCN2CCCCC2)cc1)c1c(-c2ccc(O)cc2)sc2c(C(=O)c3ccc(OCCN4CCCCC4)cc3)c(O)ccc12 | IC50 [5]: 3.1 µM
